# Laboratory results from US8853196B2, “Aminochromane, aminothiochromane and amino-1,2,3,4-tetrahydroquinoline derivatives, pharmaceutical compositions containing them, and their use in therapy” (AbbVie Deutschland GmbH & Co. KG, priority 2011, dated 2014).
# pKi: −log10 of the molar value. Structures can show the parent of a compound that is named as a salt.
# Target: T1, human GlyT1c transporter (Homo sapiens, UniProt P48067)
# T1 construct: expressed in transfected cells; host or cells: CHO cells (recombinant; membranes)
# T1 sequence (P48067 1-706): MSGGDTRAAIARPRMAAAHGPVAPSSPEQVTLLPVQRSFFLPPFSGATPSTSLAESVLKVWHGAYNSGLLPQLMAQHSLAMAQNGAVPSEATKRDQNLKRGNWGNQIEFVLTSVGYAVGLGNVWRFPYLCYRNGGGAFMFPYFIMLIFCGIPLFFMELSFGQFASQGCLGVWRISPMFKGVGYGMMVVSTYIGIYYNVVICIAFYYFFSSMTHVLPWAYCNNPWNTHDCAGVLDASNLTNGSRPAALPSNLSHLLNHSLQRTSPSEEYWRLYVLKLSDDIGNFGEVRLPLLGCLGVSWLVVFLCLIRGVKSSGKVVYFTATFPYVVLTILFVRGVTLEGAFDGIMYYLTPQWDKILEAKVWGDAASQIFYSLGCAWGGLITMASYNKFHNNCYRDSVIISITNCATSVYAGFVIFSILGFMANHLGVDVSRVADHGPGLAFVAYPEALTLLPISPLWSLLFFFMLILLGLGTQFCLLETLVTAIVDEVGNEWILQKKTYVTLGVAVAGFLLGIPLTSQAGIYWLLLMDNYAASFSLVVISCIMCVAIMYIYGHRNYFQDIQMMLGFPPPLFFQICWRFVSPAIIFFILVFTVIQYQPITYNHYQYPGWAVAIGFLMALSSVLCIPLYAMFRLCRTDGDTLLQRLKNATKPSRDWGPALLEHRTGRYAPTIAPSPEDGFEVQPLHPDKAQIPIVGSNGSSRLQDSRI
# Assay: Radioligand binding assay using recombinant CHO cell membranes expressing human GlyT1
# Conditions: values given as upper bounds, read-out: radioligand binding Kiapp
# Experimental: 2. Radioligand Binding Assays Using Recombinant CHO Cell Membranes Expressing Human GlyT1:
# Radioligand binding to human GlyT1c transporter-expressing membranes was determined as described in Mezler et al., Molecular Pharmacology 74:1705-1715, 2008.
row,Compound,pKi
1,"CN[C@@H]1COc2ccc(CNS(=O)(=O)C3CCC3)cc2[C@@H]1Cc1ccccc1 (relative stereo) [Example 25, cis-Cyclobutanesulfonic acid (4-benzyl-3-methylamino-chroman-6-ylmethyl)-amide]",≥ 7.00
2,"CCCS(=O)(=O)NCCOc1ccc2c(c1)[C@@H](Cc1ccccc1)[C@H](NC)C(C)(C)O2 (relative stereo) [Example 75, trans-Propane-1-sulfonic acid (2-(-4-benzyl-2,2-dimethyl-3-methylamino-chroman-6-yloxy)-ethyl]-amide]",≥ 6.00
3,"CN[C@H]1[C@@H](Cc2ccccc2)c2cc(OCCNS(=O)(=O)CC3CC3)ccc2OC1(C)C (relative stereo) [Example 76, cis-N-[2-(-4-Benzyl-2,2-dimethyl-3-methylamino-chroman-6-yloxy)-ethyl]-C-cyclopropyl-methanesulfonamide]",≥ 6.00
4,"CN[C@H]1[C@H](Cc2ccccc2)c2cc(OCCNS(=O)(=O)CC3CC3)ccc2OC1(C)C (relative stereo) [Example 77, trans-N-[2-(-4-Benzyl-2,2-dimethyl-3-methylamino-chroman-6-yloxy)-ethyl]-C-cyclopropyl-methanesulfonamide]",≥ 6.00
5,"CCS(=O)(=O)NCc1ccc2c(c1)C(Cc1ccccc1)C(NC)CO2 (single isomer, unassigned; isomer 2) [Example 79, cis-N-{[4-Benzyl-3-(methyl-amino)-3,4-dihydro-2H-chromen-6-yl]methy}ethane-sulfonamide. (Isomer 2)]",≥ 7.00
6,"Cn1cnc(S(=O)(=O)NCCOc2ccc3c(c2)C(Cc2ccccc2)C(N2CCC2)CO3)c1 (single isomer, unassigned; isomer 2) [Example 80, cis-1-Methyl-1H-imidazole-4-sulfonic acid [2-(3-azetidin-1-yl-4-benzyl-chroman-6-yloxy)-ethyl]-amide. (Isomer 2)]",≥ 8.00
7,"CCS(=O)(=O)NCc1ccc2c(c1)C(Cc1ccccc1)C(N1CCC1)CO2 (centres unmarked) [Example 19, Ethanesulfonic acid (3-azetidin-1-yl-4-benzyl-chroman-6-ylmethyl)-amide; trifluoro-acetic acid salt]",≥ 6.00
8,"CCCS(=O)(=O)NCc1ccc2c(c1)C(Cc1ccccc1)C(N1CCC1)CO2 (centres unmarked) [Example 20, Propane-1-sulfonic acid (3-azetidin-1-yl-4-benzyl-chroman-6-ylmethyl)-amide; trifluoro-acetic acid salt]",≥ 7.00
9,"O=S(=O)(CC1CC1)NCc1ccc2c(c1)C(Cc1ccccc1)C(N1CCC1)CO2 (centres unmarked) [Example 21, N-(3-Azetidin-1-yl-4-benzyl-chroman-6-ylmethyl)-C-cyclopropyl-methane-sulfonamide; trifluoro-acetic acid salt]",≥ 7.00
10,"CC1CCCN(S(=O)(=O)NCc2ccc3c(c2)C(Cc2ccccc2)C(N)CO3)C1 (centres unmarked) [Example 43, 3-Methyl-piperidine-1-sulfonic acid (3-amino-4-benzyl-chroman-6-ylmethyl)-amide 2,2,2-trifluoroacetate]",≥ 6.00
11,"NC1COc2ccc(CNS(=O)(=O)N3CCOCC3)cc2C1Cc1ccccc1 (centres unmarked) [Example 44, Morpholine-4-sulfonic acid (3-amino-4-benzyl-chroman-6-ylmethyl)-amide 2,2,2-trifluoroacetate]",≥ 5.00
12,"Cc1nn(C)cc1S(=O)(=O)NCc1ccc2c(c1)C(Cc1ccccc1)C(N)CO2 (centres unmarked) [Example 45, 1,3-Dimethyl-1H-pyrazole-4-sulfonic acid (3-amino-4-benzyl-chroman-6-ylmethyl)-amide 2,2,2-trifluoroacetate]",≥ 5.00
13,"Cn1ccc(S(=O)(=O)NCc2ccc3c(c2)C(Cc2ccccc2)C(N)CO3)n1 (centres unmarked) [Example 46, 1-Methyl-1H-pyrazole-3-sulfonic acid (3-amino-4-benzyl-chroman-6-ylmethyl)-amide 2,2,2-trifluoroacetate]",≥ 6.00
14,"CCC(C)S(=O)(=O)NCc1ccc2c(c1)C(Cc1ccccc1)C(N)CO2 (centres unmarked) [Example 47, Butane-2-sulfonic acid (3-amino-4-benzyl-chroman-6-ylmethyl)-amide 2,2,2-trifluoroacetate]",≥ 7.00
15,"CC(C)S(=O)(=O)NCc1ccc2c(c1)C(Cc1ccccc1)C(N)CO2 (centres unmarked) [Example 48, Propane-2-sulfonic acid (3-amino-4-benzyl-chroman-6-ylmethyl)-amide 2,2,2-trifluoroacetate]",≥ 6.00
16,"NC1COc2ccc(CNS(=O)(=O)c3ccsc3)cc2C1Cc1ccccc1 (centres unmarked) [Example 49, Thiophene-3-sulfonic acid (3-amino-4-benzyl-chroman-6-ylmethyl)-amide 2,2,2-trifluoroacetate]",≥ 6.00
17,"Cc1cc(S(=O)(=O)NCc2ccc3c(c2)C(Cc2ccccc2)C(N)CO3)c(C)o1 (centres unmarked) [Example 50, 2,5-Dimethyl-furan-3-sulfonic acid (3-amino-4-benzyl-chroman-6-ylmethyl)-amide 2,2,2-trifluoroacetate]",≥ 7.00
18,"CC(C)CS(=O)(=O)NCc1ccc2c(c1)C(Cc1ccccc1)C(N)CO2 (centres unmarked) [Example 51, 2-Methyl-propane-1-sulfonic acid (3-amino-4-benzyl-chroman-6-ylmethyl)-amide 2,2,2-trifluoroacetate]",≥ 5.00
19,"Cc1ccc(S(=O)(=O)NCc2ccc3c(c2)C(Cc2ccccc2)C(N)CO3)o1 (centres unmarked) [Example 52, 5-Methyl-furan-2-sulfonic acid (3-amino-4-benzyl-chroman-6-ylmethyl)-amide 2,2,2-trifluoroacetate]",≥ 6.00
20,"Cc1ccc(S(=O)(=O)NCc2ccc3c(c2)C(Cc2ccccc2)C(N)CO3)s1 (centres unmarked) [Example 53, 5-Methyl-thiophene-2-sulfonic acid (3-amino-4-benzyl-chroman-6-ylmethyl)-amide 2,2,2-trifluoroacetate]",≥ 6.00
21,"NC1COc2ccc(CNS(=O)(=O)c3ccoc3)cc2C1Cc1ccccc1 (centres unmarked) [Example 54, Furan-3-sulfonic acid (3-amino-4-benzyl-chroman-6-ylmethyl)-amide 2,2,2-trifluoroacetate]",≥ 7.00
22,"Cc1cc(S(=O)(=O)NCc2ccc3c(c2)C(Cc2ccccc2)C(N)CO3)n(C)n1 (centres unmarked) [Example 55, 2,5-Dimethyl-2H-pyrazole-3-sulfonic acid (3-amino-4-benzyl-chroman-6-ylmethyl)-amide 2,2,2-trifluoroacetate]",≥ 5.00
23,"Cc1csc(S(=O)(=O)NCc2ccc3c(c2)C(Cc2ccccc2)C(N)CO3)c1 (centres unmarked) [Example 56, 4-Methyl-thiophene-2-sulfonic acid (3-amino-4-benzyl-chroman-6-ylmethyl)-amide 2,2,2-trifluoroacetate]",≥ 7.00
24,"CCn1cc(S(=O)(=O)NCc2ccc3c(c2)C(Cc2ccccc2)C(N)CO3)cn1 (centres unmarked) [Example 57, 1-Ethyl-1H-pyrazole-4-sulfonic acid (3-amino-4-benzyl-chroman-6-ylmethyl)-amide 2,2,2-trifluoroacetate]",≥ 6.00
25,"Cc1ncc(S(=O)(=O)NCc2ccc3c(c2)C(Cc2ccccc2)C(N)CO3)n1C (centres unmarked) [Example 58, 2,3-Dimethyl-3H-imidazole-4-sulfonic acid (3-amino-4-benzyl-chroman-6-ylmethyl)-amide 2,2,2-trifluoroacetate]",≥ 6.00

# Target: T2, MDR1 (P-gp) (Homo sapiens, UniProt P08183)
# T2 construct: expressed in transfected cells; host or cells: Madin-Darby Canine Kidney Type II cells (MDR1-MDCK)
# T2 sequence (P08183 whole entry, species assumed): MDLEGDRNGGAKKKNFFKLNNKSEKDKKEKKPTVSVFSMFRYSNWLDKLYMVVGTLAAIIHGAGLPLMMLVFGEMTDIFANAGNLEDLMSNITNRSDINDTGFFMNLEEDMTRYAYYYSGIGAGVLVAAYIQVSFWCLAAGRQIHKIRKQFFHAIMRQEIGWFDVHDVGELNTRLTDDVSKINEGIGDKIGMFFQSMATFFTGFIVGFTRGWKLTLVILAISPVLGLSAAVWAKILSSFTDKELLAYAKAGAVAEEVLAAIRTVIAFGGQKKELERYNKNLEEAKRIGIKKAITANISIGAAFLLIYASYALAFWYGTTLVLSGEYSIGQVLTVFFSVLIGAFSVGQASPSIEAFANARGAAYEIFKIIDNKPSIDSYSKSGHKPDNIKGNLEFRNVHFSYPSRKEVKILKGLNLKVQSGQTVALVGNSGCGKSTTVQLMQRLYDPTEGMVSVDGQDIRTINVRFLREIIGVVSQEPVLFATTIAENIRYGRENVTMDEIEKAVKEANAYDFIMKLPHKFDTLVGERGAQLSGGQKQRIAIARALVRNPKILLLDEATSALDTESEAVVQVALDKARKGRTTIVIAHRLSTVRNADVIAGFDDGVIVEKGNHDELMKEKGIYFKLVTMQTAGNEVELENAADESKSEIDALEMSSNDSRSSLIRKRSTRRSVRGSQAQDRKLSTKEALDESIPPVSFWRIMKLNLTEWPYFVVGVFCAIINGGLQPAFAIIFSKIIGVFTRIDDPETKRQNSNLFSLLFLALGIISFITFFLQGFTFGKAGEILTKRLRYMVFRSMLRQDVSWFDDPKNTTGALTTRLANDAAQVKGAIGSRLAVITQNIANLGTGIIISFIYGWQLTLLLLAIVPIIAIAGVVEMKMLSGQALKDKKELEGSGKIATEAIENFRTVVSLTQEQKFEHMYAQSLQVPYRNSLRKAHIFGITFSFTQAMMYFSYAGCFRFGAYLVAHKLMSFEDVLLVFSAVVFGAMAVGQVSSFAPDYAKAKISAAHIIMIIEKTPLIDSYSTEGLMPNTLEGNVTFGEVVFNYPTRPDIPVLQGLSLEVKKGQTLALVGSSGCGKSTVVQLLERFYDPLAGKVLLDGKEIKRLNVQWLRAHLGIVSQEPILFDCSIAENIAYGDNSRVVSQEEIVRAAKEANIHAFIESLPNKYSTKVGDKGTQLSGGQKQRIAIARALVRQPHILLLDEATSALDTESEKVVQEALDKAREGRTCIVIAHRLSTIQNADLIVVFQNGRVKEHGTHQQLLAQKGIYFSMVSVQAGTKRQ
# Assay: Efflux ratio by bidirectional transport in MDR1-MDCK cells
# Assay type: in vitro ADME
# Conditions: dog; MDR1-MDCK monolayers, 1 μM compound, HBSS pH 7.4, 1 h at 37 C; calculated from permeability coefficients
# Experimental: 3. Determination of Efflux Ratio Using Madin-Darby Canine Kidney Type II Cells
# Bidirectional transport experiments were performed on Madin-Darby Canine Kidney Type II cells over-expressing multidrug resistance protein 1 (MDR1-MDCK) to evaluate the compounds as potential P-gp substrates.
# Compounds were added at 1 μM in HBSS-pH 7.4 (hanks balanced salt solution) to either the apical or basolateral side of MDR1-MDCK cell monolayers grown on Millicell 96-Cell polycarbonate filters. Samples were collected from both apical and basolateral sides at time 0 and after 1 h incubation at 37 C, compounds concentrations were measured by HPLC/MS/MS and permeability coefficients were then determined in both transport directions. The efflux ratio was subsequently calculated from the permeability coefficient.
row,Compound,"efflux ratio at 1 h, 1 μM"
1,"CN[C@@H]1COc2ccc(CNS(=O)(=O)C3CCC3)cc2[C@@H]1Cc1ccccc1 (relative stereo) [Example 25, cis-Cyclobutanesulfonic acid (4-benzyl-3-methylamino-chroman-6-ylmethyl)-amide]",1.4
